Experiments:
[1] = tested on: MPTP Mouse Model of Parkinson's Disease; assay: MPTP-induced neurotoxicity in MPTP mouse model of Parkinson's disease (striatal tyrosine hydroxylase ELISA); type: in vivo, C57BL/6J mice; settings: acute MPTP 10 mg/kg four times, striatum
Text: MPTP (1-methyl-4-phenyl-1,2,3,6-tetrahydropyridine) is routinely used as a chemical agent that induces Parkinson's disease-like neurodegeneration in cellular and animal models. Both Parkinson's Disease and MPTP-induced neurotoxicity are associated with a number of different biomarkers including reduction of tyrosine hydroxylase levels and activity. Tyrosine hydroxylase is a key enzyme in the dopamine biosynthesis pathway as it is involved in the conversion of tyrosine to […]. Tyrosine hydroxylase activity is regulated by its phosphorylation status and PP2A is known to be involved in this regulation.
C57BL/6J mice, aged 2-3 months were fed ad libitum, either standard rodent chow (Control), or rodent chow formulated with 0.1 g Compound I-63, or 0.001 g Compound I-63 per 100 g chow (0.1% and 0.001% Compound I-63, respectively); water was changed weekly. Mice were housed at 23° C., on a 12 hour light and dark cycle, with 6 mice per cage. After 2 weeks, 8-12 mice each from the Control, 0.1% Compound 1-63 and 0.001% Compound I-63 groups were injected with either saline, or 10 mg/kg MPTP i.e., four times, every 2 hours, on the same day. Mice were then maintained on their respective feeds for another week, at which point they were sacrificed by cervical dislocation and brains dissected for biochemical analyses.
Striatal tyrosine hydroxylase (TH) content was measured by ELISA as follows. Ninety-six well microliter plates (Thermo Labsystems) were incubated overnight at 4° C. with monoclonal anti-TH antibody (1:500; Calbiochem) in 8 mM sodium phosphate, 2 mM potassium phosphate, and 0.14 M sodium chloride, pH 7.4 (PBS). Wells were washed four times with PBS and then blocked for 1 hour using 5% (w/v) Carnation (Nestle) nonfat dry milk in PBS. Striatal tissue samples were homogenized by sonication in PBS-0.5% Triton X-100 (PBST) with 0.25% (w/v) SDS. […] The reaction product was measured fluorometrically within the linear range of detection (excitation:emission ratio of 530:580 nm). […] Data were expressed as percent TH levels in MPTP-treated mice relative to saline-injected mice. […]

[2] = tested on: JNPL3 transgenic mice; assay: Motor functions of JNPL3 transgenic mice (composite neuroscore); type: in vivo; settings: 0.1% diet
Procedure: The JNPL3 transgenic mouse line that carries the transgene for the human P301 L mutation of the microtubule-associated protein tau gene (MAPT) was used in this experiment (Lewis et al., 2000). 9-12 weeks old homozygous JNPL3 males (Laconic Farms, Hudson, N.Y.) were housed under standard conditions (temperature 22±2° C.; relative humidity 50±10%; 12 h light/12 h dark cycle) and allowed to acclimatize for 2 weeks. Following acclimatization, two groups of animals (6 animals per group) are changed to control diet (Research Diets; New Brunswick, N.J.) or purified 0.1% Compound I-63 formulated diet. The composite neuroscore (NS) was used as the scoring system to measure the following tasks: (1) forelimb flexion response during suspension by the tail, (2) righting and postural reflexes, and (3) prehensile traction test (Yoshiyama et al., 2005; Korenova et al., 2009). The neurological and motor examination included the basic reflex response by special attention to the assessment of the hind-limb escape extension reflex, the righting and postural reflexes and the prehensile traction test where the animal is allowed to grasp with its forepaws a horizontal cotton string (1 mm in diameter) suspended 70 cm above a padded surface. The scoring conditions were graded as follows:
2—Animal maintained forelimbs in scissored, clasped or dystonic position
Postural and Righting Reflex:
0—Animal could right when placed supine
1—Animal righting slowed (>ls)
Prehensile Traction Test:
0—Animal could complete test with at least 3 paws and tail within 2 min
1—Animal could hold on to string without falling within 2 min
2—Animal fell before 2 min without completion
3—Animal was unable to perform test
Each animal was scored using a scaling system ranging from 0-12 (normal), 13-20 (mild or early), 21-23 (moderate) and 24-30 (severe) to reflect serious impairment of neuromuscular functionality and muscular weakness. […]
Motor test scores vs. weeks of mice fed control diet (closed circles) and 0.1% Compound I-63 formulated diet (open circles). […]

[3] = tested on: phosphorylated Tau; assay: Phosphorylated tau in vivo, weekly up to 4 weeks (PHF1 Western blot of brain); parameters: species or system mice; settings: 0.1% by weight in feed, mouse brain
Procedure: Swiss Webster mice ([…]) were fed ad libitum, either standard rodent chow (Control), or rodent chow formulated with 0.1 g Compound I-63 per 100 g chow (0.1% Compound I-63); water was changed weekly. Mice were housed at 23° C., on a 12 hour light and dark cycle, with 6 mice per cage. At weekly intervals up to 4 weeks, three and six mice from the Control and 0.1% Compound I-63 groups respectively were sacrificed by cervical dislocation, brains removed, snap-frozen in liquid nitrogen, and were stored at −80° C. Brains were homogenized in 350 pi of buffer containing 20 mM MOPS-Na, pH 7.2, 1 mM EDTA/DTT, 0.5 mg/L of aprotinin, leupeptin and pepstatin, 100 nM okadaic acid, and clarified by centrifugation (14,000 rpm, 10 min, 4° C.). Supernatant protein concentrations were measured by the Bradford method, 4 volumes of the supernatant and 1 volume of 5×SDS sample buffer were mixed and boiled for 2 minutes. 40 pg of the boiled homogenate were loaded on 12% polyacrylamide gels, and transferred to nitrocellulose membranes. Membranes are blocked in 5% BSA+TBST for 1 hour at room temperature, and incubated overnight at 4° C. with the following primary antibodies at the indicated dilutions: PHF1 mAb (recognizes phospho-Serine 396/404) at 1:2000, Tau-5 (Millipore; pan-tau mAb) at 1:10,000, and anti-GAPDH (Sigma mAb; used as loading control) at 1:50,000. Protein bands were detected with the ECL Plus reagent (GE Healthcare) and blots were exposed to Kodak XOmat film. Densitometric analyses were performed with ImageJ software. For relative phospho-tau levels of the Compound I-63-treated animals, the ratio of GAPDH-normalized phospho-tau to GAPDH-normalized total tau was further normalized to the corresponding ratios for the control group of mice. Error bars represent the standard error of the means.

## CCCCCCCCCCCCCCCCCCCC(=O)NCCc1c[nH]c2ccc(O)cc12 [Compound I-63, N-(2-(5-hydroxy-1H-indol-3-yl)ethyl)icosanamide]
[1]; 0.001% diet
  rescuing of the tyrosine hydroxylase defect: approximately 20%
[1]; 0.1% diet
  rescuing of the tyrosine hydroxylase defect: approximately 20%
[2]; after eleven weeks
  mean motor test scores less than mice on control diet: 75%
[2]; after ten weeks
  protection from developing motor dysfunction: protection of JNPL3 transgenic mice from developing motor dysfunction
[2]; after twelve weeks
  mean motor test scores less than mice on control diet: 75%
[3]; four weeks
  reduction in phosphorylation of tau compared to control: ≥ 70%
[3]; three weeks
  reduction in phosphorylation of tau compared to control: > 50%
[3]; two weeks
  reduction in phosphorylation of tau compared to control: < 40%

Reference: patent US10583119B2, “Compounds, compositions and methods for making the same” (Signum Biosciences, Inc., priority 2008, dated 2020)
